According to ChEMBL document CHEMBL2062363, “Ligand-based design, in silico ADME-Tox filtering, synthesis and biological evaluation to discover new soluble 1,4-DHP-based CFTR activators” (Eur J Med Chem, 2012):

Legend:
[1] = molecular target: L-type voltage-dependent Ca2+ channel (Homo sapiens, UniProt O60840+Q01668+Q13698+Q13936); test: Inhibition of L-type voltage-dependent Ca2+ channel at 1 uM
[2] = Potentiation of forskolin-induced CFTR deltaF508 mutant expressed in FRT cells co-expressing halide-sensitive YFP-H148Q/I152L by fluorescence quenching assay; type: cell-based, Homo sapiens

An inhibition at 1 µM [1] of 79.2% was found for `CCOC(=O)C1=C(C)NC(C)=C(C(=O)OC)C1c1ccc([N+](=O)[O-])cc1` (configuration not stated) in this work.
With `CCOC(=O)C1=C(C)NC(C)=C(C(=O)OCC)C1c1cccc(Br)c1` the inhibition at 1 µM [1] was 100% and the “pEC50 for potentiation of CFTR deltaF508 (activation potency)” value (“pEC50 for potentiation of CFTR deltaF508” below) [2] was 6.54.
In the case of `CCOC(=O)C1=C(C)NC(C)=C(C(=O)OCC)C1c1ccccc1`, the inhibition at 1 µM [1] is reported as 100% and the “pEC50 for potentiation of CFTR deltaF508” value [2] is reported as 6.4.
An inhibition at 1 µM [1] of 100% was found for `CCOC(=O)C1=C(C)NC(C)=C(C(=O)OCC)C1c1cccc([N+](=O)[O-])c1` in this work.
An inhibition at 1 µM [1] of 19.7% was found for `COC(=O)C1=CNC=C(C(=O)OC)C1c1ccccc1Cl` in this work.
An inhibition at 1 µM [1] of 46.3% was found for `CCOC(=O)C1=C(C)N=C(C)/C(=C(/O)OCC)C1/C=C/c1ccccc1` (configuration not stated) in this work.
An inhibition at 1 µM [1] of 100% was found for `CCOC(=O)C1=C(C)NC(C)=C(C(=O)OCC)C1c1c(F)c(F)c(F)c(F)c1F` in this work.
An inhibition at 1 µM [1] of 27.6% was found for `CCOC(=O)C1=C(C)N=C(C)/C(=C(/O)OCC)C1/C=C/c1ccccc1OC` (configuration not stated) in this work.
With `C=CCOC(=O)C1=C(C)NC(C)=C(C(=O)OCC=C)C1c1ccc(C(C)(C)C)cc1` the inhibition at 1 µM [1] was 5.9% and the “pEC50 for potentiation of CFTR deltaF508” value [2] was 6.96.
An inhibition at 1 µM [1] of 93.3% was found for `CCOC(=O)C1=C(C)NC(C)=C(C(=O)OCC)C1c1ccc(Cl)cc1` in this work.
An inhibition at 1 µM [1] of 29.4% was found for `CCOC(=O)C1=C(C)NC(C)=C(C(=O)OCC)C1c1ccc(C)cc1` in this work.
With `COC(=O)C1=C(C)N=C(C)/C(=C(/O)OC)C1/C=C/c1ccccc1` (configuration not stated) the inhibition at 1 µM [1] was 18.8% and the “pEC50 for potentiation of CFTR deltaF508” value [2] was 5.48.
An inhibition at 1 µM [1] of 38.7% was found for `CCOC(=O)C1=C(C)N(c2ccc(OC)cc2)C(C)=C(C(=O)OCC)C1c1ccccc1` in this work.
An inhibition at 1 µM [1] of 12.9% was found for `COC(=O)C1=C(C)N(c2ccc(N(C)C)cc2)C(C)=C(C(=O)OC)C1c1ccc(Cl)cc1` in this work.
For `CCOC(=O)C1=C(C)NC(C)=C(C(=O)OCC)C1c1ccc(F)cc1`, the inhibition at 1 µM [1] was 98.6% and the “pEC50 for potentiation of CFTR deltaF508” value [2] was 5.87.
In the case of `CCOC(=O)C1=C(C)NC(C)=C(C(=O)OCC)C1c1cc(Cl)cc(Cl)c1OC`, the inhibition at 1 µM [1] is reported as 100% and the “pEC50 for potentiation of CFTR deltaF508” value [2] is reported as 6.51.
In the case of `CCOC(=O)C1=C(C)NC(C)=C(C(=O)OCC)C1c1ccc(OC)cc1OC`, the inhibition at 1 µM [1] is reported as 41.8% and the “pEC50 for potentiation of CFTR deltaF508” value [2] is reported as 6.09.
For `COC(=O)C1=C(C)NC(C)=C(C(=O)OCCCBr)C1c1cccc([N+](=O)[O-])c1` (configuration not stated), the inhibition at 1 µM [1] was 100% and the “pEC50 for potentiation of CFTR deltaF508” value [2] was 6.06.
With `CCOC(=O)C1=C(C)NC(C)=C(C(=O)OC)C1c1ccco1` (configuration not stated) the inhibition at 1 µM [1] was 86.9% and the “pEC50 for potentiation of CFTR deltaF508” value [2] was 5.85.
For `COC(=O)C1=C(C)NC(C)=C(C(=O)OC)C1c1ccc(Cl)cc1Cl`, the inhibition at 1 µM [1] was 100% and the “pEC50 for potentiation of CFTR deltaF508” value [2] was 6.72.
For `CCOC(=O)C1=C(C)NC(C)=C(C(=O)OC)C1c1ccc(C)o1` (configuration not stated), the inhibition at 1 µM [1] was 37.6% and the “pEC50 for potentiation of CFTR deltaF508” value [2] was 6.15.
An inhibition at 1 µM [1] of 100% was found for `CCOC(=O)C1=C(C)NC(C)=C(C(=O)OC)C1c1ccccc1` (configuration not stated) in this work.
In the case of `COC(=O)C1=C(C)NC(C)=C(C(=O)OC)C1c1ccc(Cl)cc1`, the inhibition at 1 µM [1] is reported as 92.6% and the “pEC50 for potentiation of CFTR deltaF508” value [2] is reported as 5.96.
In the case of `CCOC(=O)C1=C(C)NC(C)=C(C(=O)OC)C1c1ccc(Cl)cc1` (configuration not stated), the inhibition at 1 µM [1] is reported as 100% and the “pEC50 for potentiation of CFTR deltaF508” value [2] is reported as 6.51.
In the case of `COC(=O)C1=C(C)NC(C)=C(C(=O)OC)C1c1ccccc1Cl`, the inhibition at 1 µM [1] is reported as 100% and the “pEC50 for potentiation of CFTR deltaF508” value [2] is reported as 6.34.
With `CCOC(=O)C1=C(C)NC(C)=C(C(=O)OCC)C1c1ccc(Br)cc1` the inhibition at 1 µM [1] was 27.1% and the “pEC50 for potentiation of CFTR deltaF508” value [2] was 6.3.
With `CCOC(=O)C1=C(C)NC(C)=C(C(=O)OCC)C1c1ccc(Cl)c(Cl)c1` the inhibition at 1 µM [1] was 100% and the “pEC50 for potentiation of CFTR deltaF508” value [2] was 6.1.
In the case of `CCOC(=O)C1=C(C)NC(C)=C(C(=O)OC)C1c1ccc(Cl)c(Cl)c1` (configuration not stated), the inhibition at 1 µM [1] is reported as 100% and the “pEC50 for potentiation of CFTR deltaF508” value [2] is reported as 6.89.
For `COC(=O)C1=C(C)NC(C)=C(C(=O)OC)C1c1ccc(OC)cc1`, the inhibition at 1 µM [1] was 9.1% and the “pEC50 for potentiation of CFTR deltaF508” value [2] was 6.29.
With `COC(=O)C1=C(C)NC(C)=C(C(=O)OC)C1c1ccccc1F` the inhibition at 1 µM [1] was 95.9% and the “pEC50 for potentiation of CFTR deltaF508” value [2] was 6.26.
In the case of `CCOc1ccc(C2C(C(=O)OC)=C(C)NC(C)=C2C(=O)OC)cc1`, the inhibition at 1 µM [1] is reported as 14.6% and the “pEC50 for potentiation of CFTR deltaF508” value [2] is reported as 5.27.
For `COC(=O)C1=C(C)NC(C)=C(C(=O)OC)C1c1ccc(C(C)C)cc1`, the inhibition at 1 µM [1] was 54.9% and the “pEC50 for potentiation of CFTR deltaF508” value [2] was 6.18.
For `COC(=O)C1=C(C)NC(C)=C(C(=O)OC)C1c1ccc(OC)c(Br)c1`, the inhibition at 1 µM [1] was 32.4% and the “pEC50 for potentiation of CFTR deltaF508” value [2] was 5.48.
With `COC(=O)C1=C(C)NC(C)=C(C(=O)OC)C1c1ccc(OC)c([N+](=O)[O-])c1` the inhibition at 1 µM [1] was 15.6% and the “pEC50 for potentiation of CFTR deltaF508” value [2] was 4.93.
